The values below come from PubChem BioAssay (NCI).

Where “and” joins values, the source holds several entries; their conditions need not be identical. Equal values may be shown once.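 How tested: cells in 96-well plates exposed to compound for 48 hours at five concentrations. GI50 is the concentration that inhibits growth by half. TGI: total growth inhibition.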

Common to all, as to experiment: NCI anticancer screen, dose series, 48 h
The test system of assay [1] is 786-0 renal.
The subject of assay [2] is ACHN renal.
The subject of assay [3] is HCC-2998 colon.
Assay [4] relates to LOX IMVI melanoma.
Assay [5] relates to RXF 393 renal.
Assay [6] relates to SK-MEL-2 melanoma.
Assay [7] has as its system SK-MEL-5 melanoma.
Assay [8] deals with SR leukemia.
Assay [9] deals with SW-620 colon.
In assay [10] the test system is UACC-62 melanoma.

With `N#C/C(=C\c1ccsc1)c1nc2ccccc2o1`, the GI50 in assay [1] was 8400 nM; in assay [2], 45200 nM; in assay [3], greater than 100000 nM; in assay [4], greater than 100000 nM; in [5], 39800 nM; in [6], 98500 nM. Moreover, the GI50 in assay [7] is 58800 nM; in assay [8] it was greater than 100000 nM; in [9] it was greater than 100000 nM; in assay [10] it was 61600 nM. In addition, the TGI in assay [1], in assay [2], in [3], in assay [4], in assay [5] and in assay [6] was greater than 100 µM throughout. For the same compound, the TGI in assay [7], in assay [8], in assay [9] and in assay [10] was greater than 100 µM throughout.

As for `C[C@@]12CCC(=O)c3coc(c31)C(=O)c1cc3c(cc12)C(=O)C=CC3=O`, the GI50 in [1], in [2], in assay [3], in assay [4], in [5] and in [6] was greater than 1000 nM throughout. Besides, the GI50 in assay [7], in assay [8], in [9] and in assay [10] was greater than 1000 nM throughout. Moreover, the TGI in [1] was > 1 µM and 31 µM; in [2] it was > 1 µM and 30.3 µM; in assay [3], greater than 100 µM; in assay [4] it was > 1 µM and 20.9 µM; in assay [5], > 1 µM and 37.1 µM; in [6], > 1 µM and 45.1 µM. Moreover, the TGI was > 1 µM and 28.3 µM in assay [7]; greater than 71.2 µM in assay [8]; > 1 µM and 35.7 µM in assay [9]; > 1 µM and 28.9 µM in assay [10].

Consider `O=C1/C(=C/c2ccccc2)CN(C(=O)CCN2CCOCC2)C/C1=C\c1ccccc1`, for which the TGI in assay [1] worked out at 3.98 µM; in assay [2], 11.3 µM; in [3], 3.68 µM; in assay [4], 2.21 µM; in assay [5], 8.87 µM; in assay [6], 6.96 µM. Further, the TGI in [7] was found to be 4.99 µM; in assay [8] it was 4.04 µM; in assay [9], 1.55 µM; in assay [10], 3.52 µM.

As to `O=C1C=CC(=O)C2=C1[C@@H](O)C1CC=CC3C(=O)O[C@@H]2C31` (some centres not stated), the TGI in [1] was greater than 55.2 µM; in assay [2], greater than 69.9 µM; in assay [3] it was 34.6 µM; in [4] it was 50.1 µM; in assay [5], 33.9 µM; in [6] it was 35.6 µM. Besides, the TGI is 41.2 µM in assay [7], greater than 100 µM in [8], 57 µM in assay [9] and 35.8 µM in assay [10].

On to `COc1ccc(C/C(C)=C(/c2ccc(OCCN3CCCCC3)cc2)c2ccc(OC(=O)NCc3ccccc3)cc2)cc1`, for which the GI50 in assay [1] is 316 nM; in assay [2] it was 434 nM; in assay [3], 435 nM; in [4], 421 nM; in [5] it was 435 nM; in assay [6], 460 nM. Moreover, the GI50 is 421 nM in assay [7], 353 nM in [8], 419 nM in assay [9] and 455 nM in assay [10]. The TGI is 0.674 µM in assay [1]; 0.78 µM in assay [2]; 0.797 µM in assay [3]; 0.779 µM in assay [4]; 0.876 µM in assay [5]; 0.879 µM in assay [6]. In addition, the TGI was 0.774 µM in [7], 1.34 µM in [8], 0.808 µM in assay [9] and 0.817 µM in assay [10].

As for `COc1cccc(-c2c[nH]c3c(N/N=C/c4ccncc4)ncnc23)c1`, the GI50 was 1260 nM in [1]; 1370 nM in [2]; 4360 nM in [3]; 1270 nM in assay [4]; 501 nM in assay [5]; 1700 nM in assay [6]. Also, the GI50 in [7] was 809 nM; in assay [8], 872 nM; in assay [9], 1500 nM; in assay [10], 2800 nM. Besides, the TGI in assay [1] was 18.6 µM; in [2], greater than 22.9 µM; in [3], 15.8 µM; in assay [4], 6.73 µM; in assay [5] it was 2.16 µM; in assay [6], 6.15 µM. The TGI in assay [7] was 3.91 µM; in assay [8], greater than 24.1 µM; in assay [9] it was 5.39 µM; in assay [10] it was 6.31 µM.

`COc1ccc2c(c1)NC1=C(C(=O)OC1)C2c1cc(OC)c2c(c1)OCO2` (configuration not stated): the GI50 was 32 nM in assay [1]; 56.7 nM in assay [2]; 29.7 nM in assay [3]; less than 18.9 nM in [4]; less than 16.7 nM in assay [5]; 29.9 nM in [6]. Also, the GI50 in assay [7] is 21 nM; in assay [8], less than 19.1 nM; in [9], less than 19.2 nM; in assay [10] it was less than 15.6 nM. Further, the TGI in assay [1] was greater than 100 µM; in assay [2], greater than 100 µM; in assay [4], greater than 100 µM; in assay [5], greater than 72.4 µM; in assay [6], greater than 100 µM; in assay [7] it was 0.0523 µM. In addition, the TGI in [8], in assay [9] and in assay [10] was greater than 100 µM throughout.

Regarding `CCOC(=O)/C(C1=NCCN1)=C(\O)c1ccccc1`, the TGI in assay [1], in assay [2], in assay [3], in assay [4], in assay [5] and in assay [6] was greater than 100 µM throughout. In addition, the TGI in assay [7], in [8], in [9] and in assay [10] was greater than 100 µM in each case.

Turning to `O=C1CCCCC1S(=O)(=O)c1ccccc1` (configuration not stated), the TGI in assay [1], in assay [2], in [3], in assay [4], in assay [5] and in [6] was greater than 100 µM each time. In addition, the TGI in assay [7], in assay [8], in assay [9] and in assay [10] was greater than 100 µM in each case.

As to `Cc1ccccc1C1OC(=O)c2ccc3ccccc3c21` (configuration not stated), the TGI came to 18.9 µM in assay [1]; 28.6 µM in assay [2]; 12 µM in assay [3]; 7.45 µM in [4]; 6.95 µM in [5]; 5.98 µM in assay [6]. The TGI in assay [7] is 13 µM; in assay [8] it was 7.96 µM; in [9], 21.7 µM; in assay [10], 6.97 µM.

Regarding `Cn1ncnc1[C@H]1c2n[nH]c(=O)c3cc(F)cc(c23)N[C@@H]1c1ccc(F)cc1`, the GI50 in [1] was greater than 100000 nM; in [2], 54300 nM; in [3], greater than 100000 nM; in assay [4], 4750 nM; in assay [5], 25900 nM; in assay [6] it was greater than 100000 nM. The GI50 in assay [7] is greater than 100000 nM; in assay [8], 41.7 nM; in assay [9], 25900 nM; in [10] it was greater than 100000 nM. Besides, the TGI in [1], in [2], in assay [3], in assay [4], in assay [5] and in assay [6] was greater than 100 µM each time. Besides, the TGI in assay [7], in assay [8], in [9] and in [10] was greater than 100 µM each time.

Take `O=[N+]([O-])c1ccc(-n2nnc(C3=NCCN3)c2-c2ccccc2)cc1`: the TGI in assay [1], in assay [2], in assay [3], in [4], in assay [5] and in assay [6] was greater than 100 µM throughout. The TGI in [7], in [8], in [9] and in assay [10] was greater than 100 µM in each case.

With `CC1=C(C(=O)Nc2ccc3n[nH]c(C)c3c2)C(c2ccc(C(F)(F)F)cc2)CC(=O)N1` (configuration not stated), the GI50 in assay [1] was greater than 25000 nM; in [2] it was greater than 25000 nM; in assay [3], greater than 25000 nM; in [4] it was 12800 nM; in assay [5], 6700 nM; in [6], greater than 25000 nM. Besides, the GI50 in [7] was greater than 17700 nM; in [8] it was greater than 16400 nM; in assay [9], 11000 nM; in assay [10], 16000 nM. The TGI in assay [1], in assay [2], in [3], in assay [4], in assay [5] and in [6] was greater than 25 µM throughout. The TGI in [7], in assay [8], in assay [9] and in assay [10] was greater than 25 µM in each case.

`Cc1nc(Nc2ccccc2)sc1C(=O)CC(=O)C(=O)Nc1c(C(C)C)cccc1C(C)C`: the TGI in [1], in assay [2], in assay [3], in assay [4], in assay [5] and in [6] was greater than 100 µM in each case. Besides, the TGI in assay [7], in [8], in [9] and in assay [10] was greater than 100 µM throughout.

Turning to `C[C@H]1CC[C@@]2(NC1)O[C@H]1C[C@H]3[C@@H]4CC[C@H]5C[C@@H](O)CC[C@]5(C)[C@H]4CC[C@]3(C)[C@H]1[C@@H]2C`, the GI50 in [1] is 9230 nM; in [2], 11200 nM; in assay [3], 9320 nM; in assay [4], 14400 nM; in assay [5], greater than 50000 nM; in assay [6], 10700 nM. Moreover, the GI50 in [7] was 11700 nM; in assay [9] it was 24900 nM; in assay [10], 9420 nM. Besides, the TGI in [1] was 18.7 µM and > 100 µM; in assay [2], 21.9 µM and > 100 µM; in assay [3], 22 µM and > 100 µM; in assay [4] it was 41.8 µM and > 100 µM; in assay [5] it was greater than 50 µM; in assay [6] it was 23.9 µM and > 100 µM. In addition, the TGI is 23.7 µM and > 100 µM in [7]; greater than 100 µM in [8]; 50 µM in [9]; 17 µM and > 100 µM in assay [10].

For the compound `C[C@@H]1[C@H](C)N1CC(O)Cn1ccnc1[N+](=O)[O-]` (some centres not stated), the TGI in assay [1], in assay [2], in [3], in [4], in assay [5] and in assay [6] was greater than 100 µM each time. The TGI in assay [7], in [8], in [9] and in assay [10] was greater than 100 µM in each case.

On to `O=C1OCC2=C1C(c1cccc(Cl)c1)c1cc3c(cc1N2CCO)OCCO3` (configuration not stated), for which the GI50 is 64 nM in [1]; 73.3 nM in [2]; 157 nM in [3]; 68.9 nM in [4]; 29.4 nM in assay [5]; 33.5 nM in [6]. In addition, the GI50 in assay [7] was 36 nM; in [8] it was 58.1 nM; in [9] it was 40 nM; in assay [10] it was 36.7 nM. Further, the TGI in assay [1] is 5.5 µM; in assay [2], greater than 100 µM; in [3], 2.91 µM; in assay [4] it was 17.9 µM; in assay [5] it was 0.174 µM; in assay [6], 0.607 µM. Moreover, the TGI is 0.507 µM in assay [7], 67.4 µM in assay [8], greater than 100 µM in assay [9] and greater than 70 µM in assay [10].

Take `COC1CC(O[C@H]2CC[C@@]3(C)[C@H](CC[C@@H]4[C@@H]3CC[C@]3(C)[C@@H](C5=CC(=O)OC5)[C@@H](OC(C)=O)C[C@]43O)C2)OC(C)C1O` (some centres not stated): the GI50 in assay [1], in assay [2], in [3], in assay [4], in [5] and in assay [6] was less than 10 nM throughout. Moreover, the GI50 in assay [7], in [8], in assay [9] and in [10] was less than 10 nM throughout. Also, the TGI was less than 0.01 µM in assay [1]; less than 0.01 µM in assay [2]; less than 0.0187 µM in assay [3]; less than 0.01 µM in [4]; less than 0.01 µM in assay [5]; less than 0.0105 µM in assay [6]. Besides, the TGI in assay [7], in assay [9] and in [10] was less than 0.01 µM in each case.
